In US20250361230A1, “LATS Inhibitors and Uses Thereof” (The USA, as Represented by the Secretary, Dept. of Heath …, priority 2022, published 2025):

How the values were obtained:
[1] = biological target: T1, LATS1 Kinase-NanoLuc fusion in HEK-293 cells (Homo sapiens, UniProt O95835); assay: NanoBRET target engagement assay in transfected HEK-293 cells, LATS1; format: cell-based; details: Table 28, NanoBRET, HEK-293 cells; read-out: LATS1 (Cellular) IC50
T1 construct: host or cells: HEK-293
T1 sequence (O95835 1-1130): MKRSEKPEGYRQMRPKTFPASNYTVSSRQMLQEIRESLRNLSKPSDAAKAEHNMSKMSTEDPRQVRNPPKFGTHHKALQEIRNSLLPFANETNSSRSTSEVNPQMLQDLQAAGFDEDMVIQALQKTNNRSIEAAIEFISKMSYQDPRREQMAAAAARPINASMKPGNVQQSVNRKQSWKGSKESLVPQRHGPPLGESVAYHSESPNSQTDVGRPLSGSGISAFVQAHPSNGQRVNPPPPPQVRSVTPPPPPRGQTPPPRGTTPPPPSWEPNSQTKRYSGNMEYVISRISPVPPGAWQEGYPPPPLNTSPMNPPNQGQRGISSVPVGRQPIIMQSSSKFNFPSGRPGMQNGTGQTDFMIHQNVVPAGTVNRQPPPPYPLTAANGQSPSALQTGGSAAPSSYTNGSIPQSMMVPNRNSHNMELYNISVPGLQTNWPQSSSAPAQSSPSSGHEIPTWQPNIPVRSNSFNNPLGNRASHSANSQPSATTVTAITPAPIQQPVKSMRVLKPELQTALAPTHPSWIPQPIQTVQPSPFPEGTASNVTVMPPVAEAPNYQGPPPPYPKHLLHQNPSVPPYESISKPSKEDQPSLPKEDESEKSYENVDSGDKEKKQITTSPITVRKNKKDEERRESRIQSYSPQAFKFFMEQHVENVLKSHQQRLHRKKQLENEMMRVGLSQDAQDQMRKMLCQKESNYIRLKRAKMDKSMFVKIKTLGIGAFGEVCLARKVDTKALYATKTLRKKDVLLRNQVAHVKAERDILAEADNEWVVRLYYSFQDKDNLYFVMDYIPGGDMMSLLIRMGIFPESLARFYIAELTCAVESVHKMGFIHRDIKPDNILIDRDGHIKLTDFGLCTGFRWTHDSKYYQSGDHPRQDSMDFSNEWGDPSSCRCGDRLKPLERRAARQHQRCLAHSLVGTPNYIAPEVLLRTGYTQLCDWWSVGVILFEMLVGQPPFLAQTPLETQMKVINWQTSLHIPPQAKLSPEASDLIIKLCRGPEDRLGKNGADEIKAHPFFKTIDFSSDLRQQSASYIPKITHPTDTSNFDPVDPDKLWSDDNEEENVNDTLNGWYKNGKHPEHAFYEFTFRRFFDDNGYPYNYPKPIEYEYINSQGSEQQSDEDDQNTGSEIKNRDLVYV
From the text: (§1) The NanoBRET™ assay measures kinase engagement in real time in the context of the intact cell. The assay uses a Kinase-NanoLuc® fusion vector expressing a kinase protein to which a luciferase tag has been added, a cell-permeant fluorescent NanoBRET™ tracer, a NanoLuc® substrate, and an extracellular NanoLuc® inhibitor. Upon expression of the luciferase-tagged kinase, cells will produce a strong BRET signal only in the presence of the NanoBRET™ tracer. The extracellular NanoLuc® inhibitor ensures that the BRET signal observed emanates only from live cells. Because the BRET signal has tight distance constraints, addition of the test compound will decrease the BRET signal if the compound competes with the NanoBRET™ tracer for binding to the kinase domain. Under the appropriate tracer conditions established by the manufacturer, quantitative intracellular affinity and relative potency can then be determined using Mass Action model equations.
(§2) HEK-293 cells were purchased from ATCC. FuGENEHD Transfection Reagent, Kinase-NanoLuc® fusion plasmids, Transfection Carrier DNA, NanoBRET™ Tracers and dilution buffer, NanoBRET™ Nano-Glo Substrate, Extracellular NanoLuc® Inhibitor were obtained from Promega.
(§3) Assays were conducted following Promega assay protocol with some modifications as described further below. HEK-293 Cells were transiently transfected with Kinase-NanoLuc® Fusion Vector DNA by FuGENE HD Transfection Reagent. Test compounds were delivered into 384 well assay plate by Echo 550 (Labcyte Inc, Sunnyvale, CA). Transfected cells were harvested and mixed with NanoBRET™ Tracer Reagent and dispensed into 384 well plates and incubated at 37° C. in 5% CO2 cell culture incubator for 1 hour. The NanoBRET™ Nano-Glo Substrate plus Extracellular NanoLuc® Inhibitor Solution were added into the wells of the assay plate and incubated for 2-3 minutes at room temperature. The donor emission wavelength (460 nm) and acceptor emission wavelength (600 nm) were measured in the EnVision plate reader. The BRET Ratios were calculated. BRET Ratio=[(Acceptor sample÷Donor sample)−(Acceptor no-tracer control÷Donor no-tracer control)]. The IC50 values of compounds were calculated with Prism GraphPad program.
(§4) • 1. Transient Transfection of HEK-293 Cells NanoLuc® Fusion Vector DNA • 1). Cultivate HEK-293 cells (70-80% confluence) appropriately prior to assay. Trypsinize and collect HEK-293 cells. • 2). Prepare lipid: DNA complexes as follows: • a. Prepare a […] solution of DNA in Opti-MEM™ without serum that consists of the following ratios of carrier DNA and DNA encoding NanoLuc® fusion. 9.0 µg/mL of Transfection Carrier DNA, […] of NanoLuc® fusion vector DNA and 1 mL of Opti-MEM™ without phenol red. Mix thoroughly. • b. Add 30 μl of FuGENE HD Transfection Reagent into each milliliter of DNA mixture to form lipid: DNA complex. • c. Mix by inversion 10 times. • d. Incubate at ambient temperature for 20 minutes to allow complexes to form. • 3). In a sterile, conical tube, mix 1 part of lipid: DNA complex with 20 parts of HEK-293 cells in suspension. Mix gently by inversion 5 times. • 4). Dispense cells+lipid: DNA complex into a sterile tissue culture dish and incubate for 22-24 hours. • 2. Addition of Test Compounds (dry plate shooting): Each test compound is delivered from the compound source plate to the wells of 384-well white NBS plate by Echo 550. • 3. Preparation of Cells with NanoBRET™ Tracer Reagent • 1). Remove medium from dish with transfected HEK-293 cells via aspiration, trypsinize and allow cells to dissociate from the dish. • 2). Neutralize trypsin using medium containing serum and centrifuge at 200× g for 5 minutes to pellet the cells. Adjust the cell density to 2×10^5 cells/mL in Opti-MEM™ without phenol red. • 3). Prepare Complete 20× NanoBRET™ Tracer Reagent with Tracer Dilution Buffer. • 4). Dispense one part of Complete 20× NanoBRET™ Tracer Reagent to 20 parts of cells in the tube. Mix gently by inversion 10 times. • 5). […]

[2] = biological target: T2, AKT Kinase-NanoLuc fusion in HEK-293 cells (Homo sapiens, UniProt P31749); assay: NanoBRET target engagement assay in transfected HEK-293 cells, AKT; format: cell-based; details: Table 28, NanoBRET, HEK-293 cells; read-out: AKT1 (Cellular) IC50
T2 construct: host or cells: HEK-293
From the text: as §1, §2, §3, §4

T2 sequence (P31749 whole entry, the tested form may be a part): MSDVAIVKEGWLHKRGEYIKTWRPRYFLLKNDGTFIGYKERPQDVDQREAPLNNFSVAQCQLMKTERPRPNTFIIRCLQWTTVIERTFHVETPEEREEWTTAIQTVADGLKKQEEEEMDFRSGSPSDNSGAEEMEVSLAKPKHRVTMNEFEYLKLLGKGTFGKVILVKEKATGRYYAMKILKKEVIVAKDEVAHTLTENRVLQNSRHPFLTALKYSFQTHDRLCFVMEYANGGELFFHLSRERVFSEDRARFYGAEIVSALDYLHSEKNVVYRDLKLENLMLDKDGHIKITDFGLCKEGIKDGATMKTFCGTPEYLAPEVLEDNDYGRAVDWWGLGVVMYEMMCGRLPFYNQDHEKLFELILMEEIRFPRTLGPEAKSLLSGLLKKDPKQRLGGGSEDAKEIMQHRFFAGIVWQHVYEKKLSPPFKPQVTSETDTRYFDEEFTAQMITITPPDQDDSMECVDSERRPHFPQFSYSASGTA

IC50 [1] [µM] | IC50 [2] [µM] | SMILES
0.55 | > 50 | C[C@@H]1CNC[C@H](C)[C@@]1(O)c1ccc(-c2ccnc3[nH]cc(F)c23)cc1 [Compound 2, (3R,4s,5S)-4-(4-(3-fluoro-1H-pyrrolo[2,3-b]pyridin-4-yl)phenyl)-3,5-dimethylpiperidin-4-ol]
0.06 | 8.64 | C[C@@H]1CNC[C@H](C)[C@@]1(O)c1ccc(-c2ccnc3[nH]cc(F)c23)nc1 [Compound 8, (3S,4s,5R)-4-(6-(3-fluoro-1H-pyrrolo[2,3-b]pyridin-4-yl)pyridin-3-yl)-3,5-dimethylpiperidin-4-ol]
1.45 | 16.1 | C[C@@H]1CNC[C@H](C)[C@@]1(O)c1c(F)cc(-c2ccnc3[nH]cc(F)c23)cc1F [Compound 13]
2.13 | 4.95 | C[C@@H]1CNC[C@H](C)[C@@]1(O)c1ccc(-c2ccnc3[nH]cc(F)c23)cc1OC(F)(F)F [Compound 14, (3S,4s,5R)-4-(4-(3-fluoro-1H-pyrrolo[2,3-b]pyridin-4-yl)-2-(trifluoromethoxy)phenyl)-3,5-dimethylpiperidin-4-ol]
0.409 | 24.1 | C[C@@H]1CN(Cc2ccccn2)C[C@H](C)[C@@]1(O)c1c(F)cc(-c2ccnc3[nH]cc(F)c23)cc1F [Compound 17, (3S,4s,5R)-4-(2,6-difluoro-4-(3-fluoro-1H-pyrrolo[2,3-b]pyridin-4-yl)phenyl)-3,5-dimethyl-1-(pyridin-2-ylmethyl)piperidin-4-ol]
0.505 | 2.51 | C[C@@H]1CN(C)C[C@H](C)[C@@]1(O)c1cnc(-c2ccnc3[nH]cc(F)c23)cc1Cl [Compound 22, (3S,4s,5R)-4-(4-chloro-6-(3-fluoro-1H-pyrrolo[2,3-b]pyridin-4-yl)pyridin-3-yl)-1,3,5-trimethylpiperidin-4-ol]
0.127 | 56.2 | Cc1cc(-c2ccnc3[nH]cc(F)c23)ccc1[C@@]1(O)[C@H](C)CN(C2COC2)C[C@@H]1C [Compound 24, (3S,4s,5R)-4-(4-(3-fluoro-1H-pyrrolo[2,3-b]pyridin-4-yl)-2-methylphenyl)-3,5-dimethyl-1-(oxetan-3-yl)piperidin-4-ol]
0.086 | 17 | Cc1cc(-c2ccnc3[nH]cc(F)c23)ccc1[C@@]1(O)[C@H](C)CN(C(C)C)C[C@@H]1C [Compound 29, (3S,4s, 5R)-4-(4-(3-fluoro-1H-pyrrolo[2,3-b]pyridin-4-yl)-2-methylphenyl)-1-isopropyl-3,5-dimethylpiperidin-4-ol]
0.0582 | > 30 | Cc1cc(-c2ccnc3[nH]cc(F)c23)cc(F)c1C1(O)[C@H](C)CN(C2COC2)C[C@@H]1C (stereo partly drawn) [Compound 30, (3S,5R)-4-(2-fluoro-4-(3-fluoro-1H-pyrrolo[2,3-b]pyridin-4-yl)-6-methylphenyl)-3,5-dimethyl-1-(oxetan-3-yl)piperidin-4-ol]
1.19 | 39.4 | C[C@@H]1CN(C2CCS(=O)(=O)CC2)C[C@H](C)C1(O)c1c(F)cc(-c2ccnc3[nH]cc(F)c23)cc1F (stereo partly drawn) [Compound 31, 4-((3S,5R)-4-(2,6-difluoro-4-(3-fluoro-1H-pyrrolo[2,3-b]pyridin-4-yl)phenyl)-4-hydroxy-3,5-dimethylpiperidin-1-yl)tetrahydro-2H-thiopyran 1,1-dioxide]
19 | > 50 | C[C@@H]1CN(C)C[C@H](C)[C@@]1(O)c1ccc(-c2ccnc3[nH]cc(F)c23)cc1 [Compound 39, (3R,4s,5S)-4-(4-(3-fluoro-1H-pyrrolo[2,3-b]pyridin-4-yl)phenyl)-1,3,5-trimethylpiperidin-4-ol]
0.115 | 8.64 | C[C@@H]1CN(C)C[C@H](C)[C@@]1(O)c1ccc(-c2ccnc3[nH]cc(F)c23)nc1 [Compound 41, (3R,4s,5S)-4-(6-(3-fluoro-1H-pyrrolo[2,3-b]pyridin-4-yl)pyridin-3-yl)-1,3,5-trimethylpiperidin-4-ol]
0.813 | > 30 | C[C@@H]1CN(C2COC2)C[C@H](C)[C@@]1(O)c1c(F)cc(-c2ccnc3[nH]cc(F)c23)cc1F [Compound 45, (3S,4s,5R)-4-(2,6-difluoro-4-(3-fluoro-1H-pyrrolo[2,3-b]pyridin-4-yl)phenyl)-3, S-dimethyl-1-(oxetan-3-yl)piperidin-4-ol]
12.6 |  | Cc1cc(-c2ccnc3[nH]cc(F)c23)ncc1[C@@]1(O)[C@H](C)CN(C2CCC2)C[C@@H]1C [Compound 48, (3R,4s,5S)-1-cyclobutyl-4-(6-(3-fluoro-1H-pyrrolo[2,3-b]pyridin-4-yl)-4-methylpyridin-3-yl)-3,5-dimethylpiperidin-4-ol]

SMILES | IC50 [1] [µM] | IC50 [2] [µM]
C[C@@H]1CNC[C@H](C)[C@@]1(O)c1ccc(-c2ccnc3[nH]cc(F)c23)cc1Cl [Compound 1, (3S,4S,5R)-4-(2-chloro-4-(3-fluoro-1H-pyrrolo[2,3-b]pyridin-4-yl)phenyl)-3,5-dimethylpiperidin-4-ol] | 0.203 | 21.2
C[C@@H]1CNC[C@H](C)[C@@]1(O)c1ccc(-c2ccnc3[nH]cc(F)c23)cc1F [Compound 7, (3S,4s,5R)-4-(2-fluoro-4-(3-fluoro-1H-pyrrolo[2,3-b]pyridin-4-yl)phenyl)-3,5-dimethyl piperidin-4-ol] | 0.247 | 8.64
Cc1cc(-c2ccnc3[nH]cc(F)c23)ccc1[C@@]1(O)[C@H](C)CNC[C@@H]1C [Compound 9, (3S,4s,5R)-4-(4-(3-fluoro-1H-pyrrolo[2,3-b]pyridin-4-yl)-2-methylphenyl)-3,5-dimethylpiperidin-4-ol] | 0.0446 | 15.2
